Reference: publication PMC6403232, “Production and Anticancer Activity of an L-Asparaginase from Bacillus licheniformis Isolated from the Red Sea, Saudi Arabia” (Scientific Reports, 2019)

Test system: T1, ASNase (L-asparaginase) from Bacillus licheniformis KKU-KH14
T1 construct: gene ansZ
Conditions: L-asparagine 0.0-0.1 M; standard assay Tris-HCl pH 7.4, 30 min; temperature of the kinetic assay not stated

## NC(=O)C[C@H](N)C(=O)O [L-asparagine]
  Km: 50 mM
